{"source": "PubChem BioAssay AID268", "about": "(DTP/NCI, 2004)", "tested_on": "CD2F1 mice, P1798 lymphosarcoma sc, tumor weight T/C", "assay": "NCI In Vivo Anticancer Drug Screen. Data for tumor model P1798 Lymphosarcoma (subcutaneous) in CD2F1 (CDF1) mice", "details": "endpoint: mean tumor weight, higher = larger tumour", "protocol": "The antitumor activity of compounds was measured in mice bearing transplantable tumors. Survival or tumor size were measured and the results are expressed as the measurement made in the treated group (T) divided by the measurement made in the vehicle treated control group (C). The tumor model used in this assay is P1798 Lymphosarcoma (subcutaneous) in CD2F1 (CDF1) mice", "key": {"[1]": {"details": "dose: 6.25 mg/kg/injection, schedule: Q01DX010 (sc), vehicle: steriod suspending solution"}, "[2]": {"details": "dose: 200.0 mg/kg/injection, schedule: Q01DX010 (ip), vehicle: saline"}, "[3]": {"details": "dose: 100.0 mg/kg/injection, schedule: Q01DX010 (sc), vehicle: steriod suspending solution"}, "[4]": {"details": "dose: 10.0 mg/kg/injection, schedule: Q01DX010 (ip), vehicle: saline"}, "[5]": {"details": "dose: 20.0 mg/kg/injection, schedule: Q01DX010 (ip), vehicle: saline"}, "[6]": {"details": "dose: 40.0 mg/kg/injection, schedule: Q01DX010 (ip), vehicle: saline"}, "[7]": {"details": "dose: 80.0 mg/kg/injection, schedule: Q01DX010 (ip), vehicle: saline"}, "[8]": {"details": "dose: 25.0 mg/kg/injection, schedule: Q01DX010 (ip), vehicle: saline"}, "[9]": {"details": "dose: 100.0 mg/kg/injection, schedule: Q01DX010 (ip), vehicle: saline"}, "[10]": {"details": "dose: 6.25 mg/kg/injection, schedule: Q01DX010 (ip), vehicle: saline"}, "[11]": {"details": "dose: 12.5 mg/kg/injection, schedule: Q01DX010 (ip), vehicle: saline"}}, "note": "Values joined by “and” are separate entries in the source; they are usually repeats but may differ in a detail not shown here. Equal entries are not always repeated.", "data": [{"smiles": "C[C@]12CC[C@@H]3c4ccc(O)cc4CC[C@H]3[C@@H]1C[C@@H](O)[C@@H]2O", "values": [{"measurement": "T/C", "setting": "[1]", "value": "73 % of control and 86 % of control"}, {"measurement": "T/C", "setting": "dose: 25.0 mg/kg/injection, schedule: Q01DX010 (sc), vehicle: steriod suspending solution", "value": "69 % of control and 86 % of control"}]}, {"smiles": "CN(C)CC(=O)c1ccc(O)c(O)c1", "values": [{"measurement": "T/C", "setting": "[2]", "value": "122 % of control"}, {"measurement": "T/C", "setting": "dose: 300.0 mg/kg/injection, schedule: Q01DX010 (ip), vehicle: saline", "value": "105 % of control"}, {"measurement": "T/C", "setting": "dose: 450.0 mg/kg/injection, schedule: Q01DX010 (ip), vehicle: saline", "value": "72 % of control"}, {"measurement": "T/C", "setting": "dose: 675.0 mg/kg/injection, schedule: Q01DX010 (ip), vehicle: saline", "value": "80 % of control"}]}, {"smiles": "C[C@]12CC[C@@H]3c4ccccc4CC[C@H]3[C@@H]1CC[C@@H]2O", "values": [{"measurement": "T/C", "setting": "[3]", "value": "94 % of control"}, {"measurement": "T/C", "setting": "dose: 200.0 mg/kg/injection, schedule: Q01DX010 (sc), vehicle: steriod suspending solution", "value": "74 % of control"}, {"measurement": "T/C", "setting": "dose: 400.0 mg/kg/injection, schedule: Q01DX010 (sc), vehicle: steriod suspending solution", "value": "33 % of control"}, {"measurement": "T/C", "setting": "dose: 800.0 mg/kg/injection, schedule: Q01DX010 (sc), vehicle: steriod suspending solution", "value": "7 % of control"}]}, {"smiles": "Nc1ncnc2c1ncn2C1OC(COCc2ccccc2)C(OCc2ccccc2)C1OCc1ccccc1", "note": "(configuration not stated)", "values": [{"measurement": "T/C", "setting": "[4]", "value": "107 % of control and 115 % of control"}, {"measurement": "T/C", "setting": "[5]", "value": "92 % of control and 109 % of control"}, {"measurement": "T/C", "setting": "[6]", "value": "114 % of control and 89 % of control"}, {"measurement": "T/C", "setting": "[7]", "value": "93 % of control and 104 % of control"}]}, {"smiles": "CC/C(=C(/CC)c1ccc(O)cc1)c1ccc(O)cc1", "values": [{"measurement": "T/C", "setting": "[1]", "value": "91 % of control and 96 % of control"}, {"measurement": "T/C", "setting": "[3]", "value": "22 % of control and 45 % of control"}]}, {"smiles": "NC(CCSCc1ccc(N(CCCl)CCCl)cc1)C(=O)O", "note": "(configuration not stated)", "values": [{"measurement": "T/C", "setting": "dose: 4.5 mg/kg/injection, schedule: Q01DX010 (ip), vehicle: saline", "value": "108 % of control"}, {"measurement": "T/C", "setting": "dose: 9.0 mg/kg/injection, schedule: Q01DX010 (ip), vehicle: saline", "value": "86 % of control"}, {"measurement": "T/C", "setting": "dose: 18.0 mg/kg/injection, schedule: Q01DX010 (ip), vehicle: saline", "value": "98 % of control"}, {"measurement": "T/C", "setting": "dose: 36.0 mg/kg/injection, schedule: Q01DX010 (ip), vehicle: saline", "value": "93 % of control"}]}, {"smiles": "NC(N)=NCCCC(N)C(=O)NCCCCCCNC(=O)C(N)CCCN=C(N)N", "note": "(configuration not stated)", "values": [{"measurement": "T/C", "setting": "[8]", "value": "94 % of control"}, {"measurement": "T/C", "setting": "dose: 50.0 mg/kg/injection, schedule: Q01DX010 (ip), vehicle: saline", "value": "85 % of control"}, {"measurement": "T/C", "setting": "[9]", "value": "99 % of control"}, {"measurement": "T/C", "setting": "[2]", "value": "90 % of control"}]}, {"smiles": "NC(Cc1c[nH]c2ccc(N(CCCl)CCCl)cc12)C(=O)O", "note": "(configuration not stated)", "values": [{"measurement": "T/C", "setting": "dose: 0.25 mg/kg/injection, schedule: Q01DX010 (ip), vehicle: saline", "value": "106 % of control"}, {"measurement": "T/C", "setting": "dose: 0.5 mg/kg/injection, schedule: Q01DX010 (ip), vehicle: saline", "value": "97 % of control"}, {"measurement": "T/C", "setting": "dose: 1.0 mg/kg/injection, schedule: Q01DX010 (ip), vehicle: saline", "value": "40 % of control"}, {"measurement": "T/C", "setting": "dose: 2.0 mg/kg/injection, schedule: Q01DX010 (ip), vehicle: saline", "value": "13 % of control"}]}, {"smiles": "CCCNc1ncnc2[nH]ncc12", "values": [{"measurement": "T/C", "setting": "[10]", "value": "92 % of control and 95 % of control"}, {"measurement": "T/C", "setting": "[11]", "value": "72 % of control"}, {"measurement": "T/C", "setting": "[8]", "value": "25 % of control"}]}, {"smiles": "O=c1[nH]c(=O)n(C2CC(O)C(CO)O2)cc1F", "note": "(configuration not stated)", "values": [{"measurement": "T/C", "setting": "dose: 5.0 mg/kg/injection, schedule: Q01DX010 (ip), vehicle: saline", "value": "73 % of control"}, {"measurement": "T/C", "setting": "[4]", "value": "68 % of control and 84 % of control"}, {"measurement": "T/C", "setting": "[5]", "value": "47 % of control and 55 % of control"}, {"measurement": "T/C", "setting": "[6]", "value": "15 % of control and 28 % of control"}, {"measurement": "T/C", "setting": "[7]", "value": "1 % of control"}]}, {"smiles": "S=c1nc[nH]c2nc[nH]c12", "values": [{"measurement": "T/C", "setting": "dose: 10.0 mg/kg/injection, schedule: Q01DX010 (ip), vehicle: alkali diluted with saline", "value": "90 % of control"}, {"measurement": "T/C", "setting": "dose: 80.0 mg/kg/injection, schedule: Q01DX010 (ip), vehicle: alkali diluted with saline", "value": "35 % of control"}]}, {"smiles": "O=C(C(=O)N1CC1)c1c[nH]c2ccccc12", "values": [{"measurement": "T/C", "setting": "dose: 3.13 mg/kg/injection, schedule: Q01DX010 (ip), vehicle: saline", "value": "90 % of control"}, {"measurement": "T/C", "setting": "[10]", "value": "105 % of control"}, {"measurement": "T/C", "setting": "[11]", "value": "92 % of control and 99 % of control"}, {"measurement": "T/C", "setting": "[8]", "value": "108 % of control"}]}, {"smiles": "N#CCCCCCNC(=O)CCCCC(=O)NCCCCCC#N", "values": [{"measurement": "T/C", "setting": "[9]", "value": "85 % of control"}, {"measurement": "T/C", "setting": "[2]", "value": "111 % of control"}, {"measurement": "T/C", "setting": "dose: 400.0 mg/kg/injection, schedule: Q01DX010 (ip), vehicle: saline", "value": "87 % of control"}]}, {"smiles": "CCC(=O)O[C@H]1CC[C@H]2[C@@H]3CC[C@H]4CC(=O)[C@H](C)C[C@]4(C)[C@H]3CC[C@]12C", "values": [{"measurement": "T/C", "setting": "dose: 15.6 mg/kg/injection, schedule: Q01DX010 (sc), vehicle: steriod suspending solution", "value": "110 % of control"}, {"measurement": "T/C", "setting": "dose: 31.3 mg/kg/injection, schedule: Q01DX010 (sc), vehicle: steriod suspending solution", "value": "120 % of control"}, {"measurement": "T/C", "setting": "dose: 62.5 mg/kg/injection, schedule: Q01DX010 (sc), vehicle: steriod suspending solution", "value": "112 % of control"}, {"measurement": "T/C", "setting": "dose: 125.0 mg/kg/injection, schedule: Q01DX010 (sc), vehicle: steriod suspending solution", "value": "91 % of control and 77 % of control"}, {"measurement": "T/C", "setting": "dose: 250.0 mg/kg/injection, schedule: Q01DX010 (sc), vehicle: steriod suspending solution", "value": "88 % of control"}, {"measurement": "T/C", "setting": "dose: 500.0 mg/kg/injection, schedule: Q01DX010 (sc), vehicle: steriod suspending solution", "value": "96 % of control"}, {"measurement": "T/C", "setting": "dose: 1000.0 mg/kg/injection, schedule: Q01DX010 (sc), vehicle: steriod suspending solution", "value": "88 % of control"}]}]}
